From patent publication US20250115612A1, “CERTAIN 2,5-DIAZABICYCLO[4.2.0]OCTANES AND OCTAHYDROFURO[3,4-B]PYRAZINES AS GLP-1 RECEPTOR MODULATORS” (ASTRAZENECA AB, priority 2021, published 2025)

Experiments:
GLP-1R = molecular target: T1, GLP-1R (Homo sapiens, UniProt P43220); test: EndoC cAMP accumulation assay (HTRF, EndoC-βH1 cells); format: cell-based; conditions: EndoC-βH1 human pancreatic β cell line
T1 construct: host or cells: EndoC-βH1
From the text: EndoC cAMP Accumulation Assay
A HTRF cAMP assay (cAMP Gs dynamic kit; CisoBio Cat #62AM4PEJ) was used to identify agonists of GLP-1R in a pancreatic insulinoma cell line (EndoC-PH1). […] EndoC-βH1 cells have detectable GLP-1R messenger ribonucleic acid (mRNA) as detected by quantitative polymerase chain reaction (qPCR). […] The EndoC-βH1 cell line is a valid model of human beta cells and applicable for screenings to identify novel drug target candidates (Mol. Metab., 2018, 8, 144-157). CisBio HTRF cAMP kits are based on a competitive immunoassay using cryptate-labelled anti-cAMP antibody and d2-labeled cAMP. The detection kit is intended for the direct quantitative determination of cAMP. The specific signal (i.e. energy transfer) is inversely proportional to the concentration of cAMP in the standard or sample. Test compounds (10 mM in DMSO) were diluted into assay buffer (HBSS (Sigma #H8264) supplemented with 25 mM HEPES (Gibco #15630, pH 7.4), 0.1% BSA (Sigma #A3059) and 0.5 mM IBMX (Sigma #I7018) included fresh on the day of the assay) into 96 well U-bottom plates (Greiner #650201). Diluted compounds were transferred to ECHO source polypropelene plates (Labcyte #P-05525) and dose response curves were dispensed acoustically using ECHO 550 into black shallow-well u-bottom 384-well HTRF Assay Plates (Corning 4514).
Cryovials of EndoC-H1 (supplied at 1×10e^7 cells/vial) were used directly for screening. The cryovials and were removed from N2(l) and thawed rapidly in a 37° C. water bath. The cells were resuspended in assay buffer and centrifuged at 300 g for 5 min. Cells were resuspended in assay buffer at the appropriate concentration, typically at 12e5 cells per mL (3000 cells per well, dependent on cell batch) and 2.5 μL diluted cells were added to all wells of destination plate by Multidrop combi reagent dispenser (Thermofisher). The plates were incubated at rt for 30 min. The assay was stopped by adding 2.5 μL anti-cAMP cryptate solution to all wells and 2.5 μL cAMP-d2 solution (both diluted 1:20 in lysis buffer) to columns 1-22 by Combi drop. A volume of 2.5 μL cAMP-d2 solution was added to wells E23 to P24 and 2.5 μL lysis buffer added to wells A23 to D24 by multichannel pipette. The plates were incubated at rt for 1 h and read on an Envision plate reader using excitation wavelength of 320 nm and emission of 590 nm and 660 nm.
Raw data from Envision is converted to % DeltaF according to the manufacturer's instructions. Dose response curves are analysed via 4-Parameter Logistical Analysis and assay plate Z′ values obtained. Samples are graphed as percentage (%) activation plots compared to GIP (1-42, Bachem H-5645) with assay window defined by negative control as basal cell cAMP levels and positive control are defined by maximum GIP (82.5 nM) signal. GLP-1 (7-36 amide, Bachem H-6795) dose response curve was included on all plates.

human GLP-1R receptor = molecular target: T2, human GLP-1R receptor (Homo sapiens, UniProt P43220, L260F); test: CHOK1 GLP-1R cAMP assay (HTRF); format: cell-based; conditions: CHO-K1 cells stably expressing human GLP-1R
T2 construct: expressed in transfected cells; host or cells: CHO-K1 (ATCC CCL-61)
Description: A cell line stably expressing the human GLP-1R receptor (NM_002062.5, including the naturally-occurring variant Leu260Phe) in a CHO-K1 (ATCC® CCL-61™) was used for assay.
GLP-1 receptor mediated agonist activity was determined in a cell-based assay measuring cyclic adenosine monophosphate (cAMP) levels in cells using Homogeneous Time-Resolved Fluorescence (HTRF) cAMP detection kit (CisBio catalog #62AM4PEC, cAMP Gs Dynamic range kit). The cAMP detection method is based on a competitive immunoassay, in which cAMP produced by the cells and cAMP labeled with the dye d2 compete for binding to a Europium-Cryptate-labeled anti-cAMP antibody. The specific HTRF signal is inversely proportional to the concentration of cAMP.
Compounds were added to individual well in 384 well-assay plates (Greiner #784076) using an Echo (LabCyte) dispenser from 10 mM stocks. Varying concentration of compounds were added to wells, and DMSO was used to normalize each well to a volume of 100 nL. A dose response curve of GLP-1(7-36)NH2 (Bachem H-6795) was included in each run. 5 μL of cAMP concentration response standards are applied in specified wells in the assay plates. Cryo-preserved cells are thawed and resuspended in assay buffer pre-heated to 37° C. (20 mM 2-[4-(2-hydroxyethyl)piperazin-1-yl]ethanesulfonic acid (HEPES) pH 7.4, lx Hank's Balanced Salt Solution (HBSS, Life Technologies #14065) supplemented with 0.1% (w/v) bovine serum albumin (Sigma, A-7030)). Cells were centrifuged at 250*g for 5 min at rt, and resuspended in room tempered assay buffer to a final density of 0.16*10^6 cell/mL, to deliver 800 cells/well. 5 μL of assay buffer with 1 mM 3-isobutyl-1-methylxanthin (IBMX; Sigma cat I-7018) was dispensed per well in assay plates using a multidrop combi (Thermo Scientific) subsequently 5 μL of cell suspension was distributed to relevant wells in the assay using a multidrop dispenser. Assay plates were incubated 20 min at rt.
Detection reagents, Europium-Cryptate-labeled anti-cAMP antibody and cAMP labeled with the dye d2, are diluted in lysis buffer, provided by the manufacturer. 5 μL of each detection reagent is supplemented to each assay well using a multidrop dispenser. Assay plates are incubated in the dark for at least one h. The HTRF signal is measured using the HTRF module (excitation: 337 nm, emission A: 665 nm and emission B: 620 nm) in Pherastar FSX (BMG Labtech).
Raw data were converted to pM cAMP using the cAMP standard curve included in each run. Converted data were further analyzed in Genedata Screener (Genedata) and EC50 determinations were made from agonist dose-response curves analyzed with a curve fitting program using a 4-parameter logistic dose response equation (Equation y=A+((B−A)/1+((C/x)^D))) where A is no stimulation, B is full stimulation, C is the EC50 and D is the Hill slope). The percent effect was determined relative to a saturating concentration of a full GLP-1R agonist (GLP-1(7-36)NH2 has 100% effect in this assay setup).

T1 sequence (P43220 24-463): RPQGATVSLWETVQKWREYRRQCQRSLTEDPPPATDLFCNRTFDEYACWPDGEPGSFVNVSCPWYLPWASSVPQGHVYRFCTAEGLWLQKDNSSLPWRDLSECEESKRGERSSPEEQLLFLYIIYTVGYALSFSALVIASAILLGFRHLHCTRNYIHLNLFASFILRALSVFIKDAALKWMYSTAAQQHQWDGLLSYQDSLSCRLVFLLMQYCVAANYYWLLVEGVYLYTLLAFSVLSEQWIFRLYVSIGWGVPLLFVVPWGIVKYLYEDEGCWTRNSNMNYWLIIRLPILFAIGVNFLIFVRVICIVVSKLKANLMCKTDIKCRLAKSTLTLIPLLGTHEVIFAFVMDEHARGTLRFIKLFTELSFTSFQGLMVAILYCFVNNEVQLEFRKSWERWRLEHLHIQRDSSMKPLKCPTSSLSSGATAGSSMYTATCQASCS
T2 sequence (P43220 24-463 L260F): as the sequence (P43220 24-463) above, with L237F counted along it

EC50 (GLP-1R) [nM]	EC50 (human GLP-1R receptor) [nM]	Compound
40	90	N#Cc1ccc(COc2cccc(N3CCN(Cc4nc5cc(Cl)c(C(=O)O)cc5n4C[C@@H]4CCO4)[C@H]4CC[C@H]43)n2)c(F)c1 (single isomer, unassigned) [Example 7b]
4	6.4	COc1cc(C(=O)O)cc2c1nc(CN1CCN(c3cccc(OCc4ccc(Cl)cc4F)n3)[C@H]3CC[C@@H]31)n2C[C@@H]1CCO1 (single isomer, unassigned) [Example 5a, 2-(((1R*,6R*)-5-(6-((4-Chloro-2-fluorobenzyl)oxy)pyridin-2-yl)-2,5-diazabicyclo[4.2.0]octan-2-yl)methyl)-4-methoxy-1-(((S)-oxetan-2-yl)methyl)-1H-benzo[d]imidazole-6-carboxylic acid]
110	170	Cc1nccn1CCn1c(CN2CCN(c3cccc(OCc4ccc(Cl)cc4F)n3)[C@@H]3COC[C@@H]32)nc2c(F)cc(C(=O)O)cc21 (single isomer, unassigned) [Example 23]
–	2.2	CCn1cncc1Cn1c(CN2CCN(c3cccc(OCc4ccc(Cl)cc4F)n3)[C@H]3CC[C@@H]32)nc2c(OC)cc(C(=O)O)cc21 (single isomer, unassigned) [Example 12a]
170	110	Cc1nccn1CCn1c(CN2CCN(c3cccc(OCc4ccc(Cl)cc4F)n3)[C@@H]3COC[C@@H]32)nc2ccc(C(=O)O)cc21 (single isomer, unassigned) [Example 25a]
57	95	N#Cc1ccc(COc2cccc(N3CCN(Cc4nc5c(Cl)cc(C(=O)O)cc5n4C[C@@H]4CCO4)[C@H]4CC[C@H]43)n2)c(F)c1 (single isomer, unassigned) [Example 6b]
290	120	O=C(O)c1cc(F)c2nc(CN3CCN(c4cccc(OCc5ccc(Cl)cc5F)n4)[C@@H]4COC[C@@H]43)n(C[C@@H]3CCO3)c2c1 (single isomer, unassigned) [Example 19b, 2-(((4aR*,7aS*)-4-(6-((4-Chloro-2-fluorobenzyl)oxy)pyridin-2-yl)hexahydrofuro[3,4-b]pyrazin-1(2H)-yl)methyl)-4-fluoro-1-(((S)-oxetan-2-yl)methyl)-1H-benzo[d]imidazole-6-carboxylic acid]
120	64	COc1cc(C(=O)O)cc2c1nc(CN1CCN(c3cccc(OCc4ccc(Cl)cc4F)n3)[C@@H]3COC[C@@H]31)n2C[C@@H]1CCO1 (single isomer, unassigned) [Example 16b, 2-(((4aR*,7aS*)-4-(6-((4-Chloro-2-fluorobenzyl)oxy)pyridin-2-yl)hexahydrofuro[3,4-b]pyrazin-1(2H)-yl)methyl)-4-methoxy-1-(((S)-oxetan-2-yl)methyl)-1H-benzo[d]imidazole-6-carboxylic acid]
270	150	O=C(O)c1cc(Cl)c2nc(CN3CCN(c4cccc(OCc5ccc(Cl)cc5F)n4)[C@@H]4COC[C@@H]43)n(C[C@@H]3CCO3)c2c1 (single isomer, unassigned) [Example 22b, 4-Chloro-2-(((4aR*,7aS*)-4-(6-((4-chloro-2-fluorobenzyl)oxy)pyridin-2-yl)hexahydrofuro[3,4-b]pyrazin-1(2H)-yl)methyl)-1-(((S)-oxetan-2-yl)methyl)-1H-benzo[d]imidazole-6-carboxylic acid]
1100	250	Cc1nccn1CCn1c(CN2CCN(c3cccc(OCc4ccc(Cl)cc4F)n3)[C@@H]3COC[C@@H]32)nc2ccc(C(=O)O)cc21 (single isomer, unassigned) [Example 25b]
69	180	N#Cc1ccc(COc2cccc(N3CCN(Cc4nc5cc(F)c(C(=O)O)cc5n4C[C@@H]4CCO4)[C@H]4CC[C@@H]43)n2)c(F)c1 (single isomer, unassigned) [Example 9a]
13	23	N#Cc1ccc(COc2cccc(N3CCN(Cc4nc5c(F)cc(C(=O)O)cc5n4C[C@@H]4CCO4)[C@H]4CC[C@@H]43)n2)c(F)c1 (single isomer, unassigned) [Example 3a, 2-(((1R*,6R*)-5-(6-((4-Cyano-2-fluorobenzyl)oxy)pyridin-2-yl)-2,5-diazabicyclo[4.2.0]octan-2-yl)methyl)-4-fluoro-1-(((S)-oxetan-2-yl)methyl)-1H-benzo[d]imidazole-6-carboxylic acid]
280	130	Cn1ccc(Cn2c(CN3CCN(c4cccc(OCc5ccc(C#N)cc5F)n4)[C@@H]4CC[C@@H]43)nc3ccc(C(=O)O)cc32)n1 (racemic) [Example 1, rac-2-(((1R,6S)-5-(6-((4-Cyano-2-fluorobenzyl)oxy)pyridin-2-yl)-2,5-diazabicyclo[4.2.0]octan-2-yl)methyl)-1-((1-methyl-1H-pyrazol-3-yl)methyl)-1H-benzo[d]imidazole-6-carboxylic acid]
–	250	N#Cc1ccc(COc2cccc(N3CCN(Cc4nc5cc(Cl)c(C(=O)O)cc5n4C[C@@H]4CCO4)[C@H]4CC[C@H]43)n2)c(F)c1 (single isomer, unassigned) [Example 7c]

Compound	EC50 (GLP-1R) [nM]	EC50 (human GLP-1R receptor) [nM]
CC(C)(C)OCCn1c(CN2CCN(c3cccc(OCc4ccc(C#N)cc4F)n3)[C@@H]3CC[C@@H]32)nc2ccc(C(=O)O)cc21 (racemic) [Example 10, rac-1-(2-(tert-Butoxy)ethyl)-2-(((1R,6S)-5-(6-((4-cyano-2-fluorobenzyl)oxy)pyridin-2-yl)-2,5-diazabicyclo[4.2.0]octan-2-yl)methyl)-1H-benzo[d]imidazole-6-carboxylic acid]	–	370
CCCCOCCn1c(CN2CCN(c3cccc(OCc4ccc(C#N)cc4F)n3)[C@@H]3CC[C@@H]32)nc2ccc(C(=O)O)cc21 (racemic) [Example 11, rac-1-(2-Butoxyethyl)-2-(((1R,6S)-5-(6-((4-cyano-2-fluorobenzyl)oxy)pyridin-2-yl)-2,5-diazabicyclo[4.2.0]octan-2-yl)methyl)-1H-benzo[d]imidazole-6-carboxylic acid]	–	150
